# Experimental data taken from the supplement of paper PMC11451515.
# System: P12-Ichikawa
# Test: cell viability relative to DMSO control; higher = less cytotoxic
# Conditions: 48 h
# Procedure, shortened: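 Viability, reported as a per-plate percentage of DMSO wells with cell-free wells as background, came from CellTiter-Glo One luminescence. Reading took place after 48 h at 37°C. Before that, NOMO1 or SEM (500 cells/well) or P12-Ichikawa (1000 cells/well) leukemia cells, adapted for at least four passages in each medium, were seeded in 1536-well plates (5 μl) and pin-dosed with library compounds in DMSO, 47 μM to 0.79 nM over 11 threefold points.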
# [1] = HPLM + 10% dialyzed FBS, 0.000781 µM
# [2] = HPLM + 10% dialyzed FBS, 0.00234 µM
# [3] = HPLM + 10% dialyzed FBS, 0.00702 µM
# [4] = HPLM + 10% dialyzed FBS, 0.0211 µM
# [5] = HPLM + 10% dialyzed FBS, 0.0632 µM
# [6] = HPLM + 10% dialyzed FBS, 0.19 µM
# [7] = HPLM + 10% dialyzed FBS, 0.569 µM
# [8] = HPLM + 10% dialyzed FBS, 1.71 µM
# [9] = HPLM + 10% dialyzed FBS, 5.12 µM
# [10] = HPLM + 10% dialyzed FBS, 15.4 µM
# [11] = HPLM + 10% dialyzed FBS, 46.1 µM
# [12] = RPMI 5 mM glucose + 10% FBS, 0.000781 µM
# [13] = RPMI 5 mM glucose + 10% FBS, 0.00234 µM
# [14] = RPMI 5 mM glucose + 10% FBS, 0.00702 µM
# [15] = RPMI 5 mM glucose + 10% FBS, 0.0211 µM
# [16] = RPMI 5 mM glucose + 10% FBS, 0.0632 µM
# [17] = RPMI 5 mM glucose + 10% FBS, 0.19 µM
# [18] = RPMI 5 mM glucose + 10% FBS, 0.569 µM
# [19] = RPMI 5 mM glucose + 10% FBS, 1.71 µM
# [20] = RPMI 5 mM glucose + 10% FBS, 5.12 µM
# [21] = RPMI 5 mM glucose + 10% FBS, 15.4 µM
# [22] = RPMI 5 mM glucose + 10% FBS, 46.1 µM
# [23] = RPMI 5 mM glucose + 10% dialyzed FBS, 0.000781 µM
# [24] = RPMI 5 mM glucose + 10% dialyzed FBS, 0.00234 µM
# [25] = RPMI 5 mM glucose + 10% dialyzed FBS, 0.00702 µM
# [26] = RPMI 5 mM glucose + 10% dialyzed FBS, 0.0211 µM
# [27] = RPMI 5 mM glucose + 10% dialyzed FBS, 0.0632 µM
# [28] = RPMI 5 mM glucose + 10% dialyzed FBS, 0.19 µM
# [29] = RPMI 5 mM glucose + 10% dialyzed FBS, 0.569 µM
# [30] = RPMI 5 mM glucose + 10% dialyzed FBS, 1.71 µM
# [31] = RPMI 5 mM glucose + 10% dialyzed FBS, 5.12 µM
# [32] = RPMI 5 mM glucose + 10% dialyzed FBS, 15.4 µM
# [33] = RPMI 5 mM glucose + 10% dialyzed FBS, 46.1 µM
Structure (SMILES),cell viability [1] [%],cell viability [2] [%],cell viability [3] [%],cell viability [4] [%],cell viability [5] [%],cell viability [6] [%],cell viability [7] [%],cell viability [8] [%],cell viability [9] [%],cell viability [10] [%],cell viability [11] [%],cell viability [12] [%],cell viability [13] [%],cell viability [14] [%],cell viability [15] [%],cell viability [16] [%],cell viability [17] [%],cell viability [18] [%],cell viability [19] [%],cell viability [20] [%],cell viability [21] [%],cell viability [22] [%],cell viability [23] [%],cell viability [24] [%],cell viability [25] [%],cell viability [26] [%],cell viability [27] [%],cell viability [28] [%],cell viability [29] [%],cell viability [30] [%],cell viability [31] [%],cell viability [32] [%],cell viability [33] [%]
O=C(CCc1ccc(O)cc1)c1c(O)cc(O)cc1O[C@@H]1O[C@H](CO)[C@@H](O)[C@H](O)[C@H]1O,96.3,96.6,94.1,92.8,88,96.3,86.2,84,85.1,81.9,85.5,90.2,85.4,86.5,86.5,82.4,83.6,88.1,82.6,82.5,81.6,86.1,84.1,84.3,95,93.9,82.8,85.1,81.8,89.3,83.2,80.2,82.8
O=C1CCc2ccc(OCCCCN3CCN(c4cccc(Cl)c4Cl)CC3)cc2N1,99,101,99.7,85,110,98.9,104,104,89.9,106,87.3,106,110,106,74.3,107,101,102,100,106,105,78.3,92.8,98.9,96.9,80.5,98.7,106,100,89.2,93.6,94.1,73.1
CCCCCCCCc1ccc(CCC(N)(CO)CO)cc1,113,111,113,104,108,112,101,107,76.1,84.1,7.48,118,114,113,114,119,115,104,101,80.8,60,3.8,105,110,112,109,103,111,90.2,114,87.2,68,3.18
CO[C@H]1C[C@@H]2CC[C@@H](C)[C@@](O)(O2)C(=O)C(=O)N2CCCC[C@H]2C(=O)O[C@H]([C@H](C)C[C@@H]2CC[C@@H](OCCO)[C@H](OC)C2)CC(=O)[C@H](C)/C=C(/C)[C@@H](O)[C@@H](OC)C(=O)[C@H](C)C[C@H](C)\C=C/C=C\C=C/1C,101,109,104,94.1,99.9,98.9,96.5,86.6,76.7,44.7,50.3,82.5,94,89.6,79.2,77.8,77.7,68.8,70.6,51.8,25.7,26.1,90.8,99.1,93.7,84.9,85.8,87.1,80.5,78.1,51.4,33.4,33.9
Nc1nc(OCc2ccccc2)c2nc[nH]c2n1,108,110,117,115,120,120,120,118,114,112,113,97.9,107,120,117,124,111,114,118,120,120,111,105,114,119,117,121,117,122,120,121,120,119
CC(=O)O[C@@]12CO[C@@H]1C[C@H](O)[C@]3(C)[C@@H]2[C@H](OC(=O)C4=CC=CC=C4)[C@]5(O)C[C@H](OC(=O)C(O)[C@@H](NC(=O)OC(C)(C)C)C6=CC=CC=C6)C(=C(/[C@@H](O)C3=O)C5(C)C)/C (some centres not stated),28,36.3,37.7,38,42.2,40.1,24.8,19.8,8.29,4.99,3.29,33.6,32.1,35.6,35.2,37.2,34.8,25.5,25.5,11.8,6.81,3.21,42.5,46.4,48.1,57.5,49.4,51.4,40.2,31.5,15.5,5.67,2.26
Cc1ccc(C(=O)c2cc(O)c(O)c([N+](=O)[O-])c2)cc1,93.6,93.5,95.5,103,101,104,104,102,90.9,101,105,90.2,88.2,85.9,85.8,102,103,95.1,94.6,84.3,102,102,82.5,93.4,95,91.8,89.3,93.6,99.2,91,84.7,89.5,91.4
COC1=CC2=C(C=C1OC)[C@H]3[C@@H](CO2)OC4=C(C=CC5=C4\C=C/C(C)(C)O5)C3=O,95.5,103,96.9,99.9,93.5,102,93.5,69.7,67.7,65.6,2.52,89,94.9,98.9,95.9,69.6,80,62.2,52.1,48.3,46.5,3.34,84.1,89.1,93.8,88.9,74.4,79.1,69.3,62.1,58.5,60.9,3.49
CO[C@@H]1C(N(C)C(=O)c2ccccc2)C[C@H]2O[C@]1(C)n1c3ccccc3c3c4c(c5c6ccccc6n2c5c31)C(=O)NC4=O (some centres not stated),84.9,88.1,93.3,92.3,91,97.7,99,91.2,90,46,25.9,78.8,87.8,88.7,90.9,97.4,87,84.8,90.2,73.4,27.1,32.5,78.9,84.4,91,91.9,82.9,90.1,83,84.8,87.8,23.2,32.7
COC[C@H]1OC(=O)C2=COC3=C2[C@@]1(C)\C4=C(\[C@@H]5CC[C@H](O)[C@@]5(C)C[C@H]4OC(C)=O)C3=O,105,120,85.6,117,120,123,127,123,121,109,68.2,104,121,67.4,118,114,129,128,124,117,101,81.6,100,115,84.9,120,131,126,132,130,116,88.8,58.9
CN(C)CCN(Cc1ccc(Cl)cc1)c1ccccn1.Cl,89,97.1,95.9,97.1,96.9,94.9,97.5,101,95.2,96.4,101,80.3,80.4,85.4,95.1,80.5,87.9,90.4,87.7,90.4,85.2,82.4,83,82.3,84.4,87.9,84.2,79.2,82.4,80.3,83.3,78.8,73.2
C[C@@H]1C[C@H]2[C@@H]3CC\C4=C\C(=O)\C=C/[C@]4(C)[C@@]3(Cl)[C@@H](O)C[C@]2(C)[C@@]1(OC(=O)C5=CC=CO5)C(=O)CCl,98.5,93.7,71.9,66.9,64.6,64.7,60.8,61.6,57.9,40.9,50,99.2,97.7,65.4,54.6,52.1,49.3,53.7,51.3,41.6,32.6,40.2,93,84.6,59.1,50.6,44.1,46.2,40,41.2,35.8,30.2,30.7
Cc1ncc([N+](=O)[O-])n1CCO,116,121,126,125,118,123,120,132,124,110,123,106,115,123,127,112,112,127,124,123,116,120,121,129,122,129,135,135,127,125,131,129,128
OC1=CC=C(C=C1)\C2=C\C(=O)C3=C(O2)C=C(O)C=C3O,110,112,113,119,114,120,116,108,107,108,109,111,109,112,111,105,106,104,105,104,109,96.6,117,120,119,122,118,113,115,109,110,103,96.4
